Assay results from US20200330447A1, “CANCER TREATMENT VIA REPOSITIONED TRICYCLIC ANTI-DEPRESSANT-LIKE DRUGS AS ANTI-CANCER AGENTS AND NEW COMBINATIONS OF SUCH DRUGS” (Board of Supervisors of Louisiana State University and …, priority 2015, published 2020).

Columns and labels:
Type in all cases: cell-based
A172 cells = experiment: Invasive structures in 3D culture
A172 glioblastoma cells [1] = experiment: Wound motility (migration) assay, Incucyte; details: for motility: 5 or 10 μM, 8 h prior to wounding; for motility (percent migration), single drug: either drug alone at 10 μM
Method: An important aspect of this technology is the showing that deptropine and pizotifen block tumor invasion using 3D assays. […] For this experiment A172 glioblastoma cells were treated with 5 or 10 μM deptropine or pizotifen or drug mix at 5 μM concentration for 8 h prior to the wounding and the addition of matrigel. Upon wounding, cells were allowed to migrate or invade through matrigel in the presence of DMSO, 5 or 10 μM deptropine or pizotifen or the drug mix at 5 μM concentration. EIPA, a known inhibitor of lysosomal outward movement, is the positive control. Motility and invasion were calculated by Incucyte platform that acquires real time images of invasion and motility and calculate the relative wound density percentage at different time points. Percent migration (FIG. 6A) or invasion (FIG. 6B) through matrigel in A172 glioblastoma cells in the presence of DMSO, 5 or 10 μM deptropine or pizotifen or the drug mix at 5 μM concentration. Error bars represent s.e.m. of 5 separate experiments. # statistical significance, p<0.001, versus both 1% FBS and DMSO; *, p<0.01 versus both 1% FBS and DMSO

A172 glioblastoma cells [2] = experiment: Acidic media pH induced lysosome distribution, LAMP-1 IF imaging; details: for acidic media induced trafficking of lysosomes to the cell periphery: 5 or 10 μM overnight, then low pHe media with drug 2 h; for lysosomal outward movement, early time: 5 or 10 μM, 2 h then low pHe media with drugs 2 h (4 hours); for inward movement of lysosomes, single drug: one micromolar alone
Method: A172 glioblastoma cells were treated overnight with 5 or 10 μM deptropine or pizotifen or with the deptropine or pizotifen in combination at 5 μM concentration. The next day, media was change to low pHe media containing deptropine or pizotifen and the cells were incubated for an additional 2 h. EIPA is a known inhibitor of lysosomal outward movement and represents the positive control. At the end of the incubation time, cells were fixed and stained for LAMP-1, filamentous actin and nuclei. Representative merged IF images depicting the effect of pHe 7.4, pHe 6.4, DMSO or deptropine and pizotifen on the distribution of lysosomes in A172 glioblastoma cells. On color versions of the Figure, red puncta are lysosomes, blue is nuclei and green is actin. As could be seen, lysosomes appear more peripherally distributed in A172 glioma cells than in cells treated with concentrations of 5 to 10 micromolar deptropine or pizotifen.
Cells were treated as described above with FIG. 2 but included a concentration of 0.1 micromolar and 1 micromolar deptropine and pizotifen.
Turning to FIG. 7, an additional aspect of this technology is how quickly deptropine and pizotifen act to move lysosomes towards the nucleus. […] A172 glioblastoma cells were treated with the 5 or 10 μM deptropine or pizofifen for 2 h and then with low pHe media containing the drugs for an additional 2 hours. At the end of incubation time, cells were fixed and stained for LAMP-1, filamentous actin, and nuclei. Representative merged IF images depicting the effect of DMSO, 5 and 10 μM deptropine or pizotifen upon 4 hours on the distribution of lysosomes, colored red in color images, in A172 glioblastoma cells. Also shown in color images are actin, colored green, and nuclei, colored blue.

[3] = system: DU145 prostate cancer cells; experiment: High content imaging-based screen (Cellomics) for lysosome migration inhibitors; details: pH 6.4 media, 2 micrograms per ml, 16 hours
Method: DEVELOPMENT OF A HIGH CONTENT IMAGING-BASED SCREEN: The followings process was followed to identify chemicals that were lysosome migration inhibitors. DU145 prostate cancer cells were seeded in 96 well flat bottom black walled plates at 4,500 cells per well. All compounds and controls were exposed to RPMI bicarbonate buffered media (pH 6.4). RPMI buffered media titrated at pH of 6.4-6.8 was added to column 12 after the media was removed and serves as negative control (low acidic pH so lysosomes move out). […] The 4 compound libraries chosen to screen were the NIH Clinical Collection (450 drugs), Prestwick (1200 drugs), Prestwick phytochemical and the Green Pharma collection (xx drugs). Compounds were diluted with buffered RPMI media to 2 micrograms per ml concentrations. Individual compounds to be screened were added robotically as a single compound per well through columns 2-11. Plates were incubated at 37 degrees in 5% CO2 for 16 hours then the medium was removed and the cells were fixed with 4% cold paraformaldehyde (Sigma-Aldrich) for 20 minutes at 4 degrees. Fixed cells were washed once with PBS. To stain lysosomes, cells were incubated for 1 hour with LAMP1 antibody (H4A3) diluted in BSP (containing 0.25% BSA and 0.1% saponin in PBS) at 1/200. Cells were then washed with PBS 3 times then incubated for 1 hour with Dylight Donkey anti-mouse diluted at 1/200 in BSP. To stain the nucleus, cells were then washed with PBS 3 times and incubated for 20 minutes with 1×DAPI diluted in PBS. DAPI was washed off with PBS and cells were maintained in PBS for the duration of the screening process. Plates were mounted and read in a Cellomics Arrayscan automated fluorescence imager. The Cellomics platform allows for high content throughput screening by combining fluorescence microscopy with a multi-parameter image analysis. Cells were photographed using 20× objective in 2 fluorescent channels. A total of 15 different fields in each well, and at least 300 cells were imaged per well. The biocompartmental analysis algorithm was used to identify each cell by its nucleus (channel 1 recognized by the DAPI stain) and to generate a cytoplasmic mask (ring) of 12 pixels width in which the inner ring was 6 pixels away from the nucleus. The algorithm calculates the number of lysosomes inside the ring as indicated by fluorescent LAMP-1 positive puncta in channel 2 as a mean ring spot count. Therefore, when lysosomes move away from the nucleus and disperse throughout the cytoplasm, the number of spots representing lysosomes inside the cytoplasmic ring increases (low pH conditions). By contrast, lysosomes cluster near the nucleus the numbers of spot inside the cytoplasmic ring decreases (EIPA treated).
Z′-factor is a simple statistical coefficient used to assess performance and quality of the assay in high-throughput screening. It is calculated with the formula: Z′=1-(3σct+3σcb)/|μct−μcb|, where p indicates mean, a represents standard deviation, “ct” indicates the positive control, “cb” indicates the negative control. […] If the Z′ is more than 0.5, the assay is considered to be high quality assay.
The Z′ factor of the assay was determined from the EIPA (positive control) and low pH (negative control). Experiments were run in duplicate. Only plates with positive Z′ factor was used for analysis.

Structure (SMILES) | number of invasive structures formed in 3D culture (A172 cells) | motility (A172 glioblastoma cells [1]) | motility (percent migration), single drug (A172 glioblastoma cells [1]) | acidic media induced trafficking of lysosomes to the cell periphery (A172 glioblastoma cells [2]) | lysosomal outward movement, early time (A172 glioblastoma cells [2]) | inward movement of lysosomes, single drug (A172 glioblastoma cells [2]) | hit in screen for lysosome migration inhibitors (mean ring spot count) [3]
CN1[C@@H]2CC[C@H]1C[C@@H](OC1c3ccccc3CCc3ccccc31)C2 [deptropine, 3a-[(10, 11-dihydro-5H-dibenzo[a,d]cyclohepten-5-yl)oxy]1aH,5aH-tropane] | effectively reduce the number of invasive structures | decrease | reduces motility but to a level that is determined to be significant | blocks acidic media induced trafficking of lysosomes to the cell periphery | prevent lysosomal outward movement | only a marginal effect | hits
CN1CCC(=C2c3ccccc3CCc3sccc32)CC1 [pizotifen, 4-(1-methyl-4-piperidylidine)-9,10-dihydro-4H-benzo-[4,5]cyclohepta[1,2]-thiophene] | effectively reduce the number of invasive structures | decrease | reduces motility but to a level that is determined to be significant | blocks acidic media induced trafficking of lysosomes to the cell periphery | prevent lysosomal outward movement | only a marginal effect | hits
